Key:
[1] = test system: summer wheat (TRZAS; cv. Triso); assay: Absolute action: reduction of damage by mesosulfuron-methyl on summer wheat, greenhouse post-emergence; assay type: in vivo; details: for Absolute reduction in herbicide damage (damage without safener minus damage with safener): mesosulfuron-methyl 20 g/ha; for Herbicide damage with compound of the formula (I): then mesosulfuron-methyl 20 g/ha, visual 0-100% scale, 14-21 days after application
Procedure: (§1) 2.1 Absolute Action of Selected Compounds of the Invention Using the Example of Reduction of Damage by Mesosulfuron-Methyl on Summer Wheat (TRZAS) The seeds of the crop plants to be treated are laid out in sandy loam in wood fiber or plastic pots (diameter ˜4 cm), covered with soil and grow in a greenhouse under good conditions for germination and growth. The trial plants were treated at the early leaf stage (BBCH10—BBCH12). In the course of this, the inventive compounds of the general formula (I) formulated in the form of wettable powders (WP) were sprayed onto the above-ground parts of the plants as an aqueous suspension with a water application rate corresponding to 800 l/ha with addition of wetting agent (e.g. 0.2% agrotin) in the specified dose. This was followed by the application of the herbicide. For this purpose, mesosulfuron-methyl, formulated in the form of water-dispersible granules (WG), was sprayed onto the above-ground parts of the plants in the form of an aqueous dispersion with a water application rate corresponding to 800 l/ha with addition of wetting agent (e.g. 0.2% agrotin) in a dose of 20 g/ha. The dose of the herbicide was chosen here such that it causes visually apparent damage (min. 30%, max. 75%) compared to untreated crop plants at the evaluation time on a control group of crop plants without safener treatment that were included in the same trial. After application, the plants were cultivated under good growth conditions in a greenhouse. The damage was visually assessed 14-21 days after application. The damage effect was assessed visually on a scale of 0-100% by comparison with untreated control plants, and averaged over 2-3 repeats per treatment. Examples: • 0%=no noticeable effect compared to the untreated plant • 20%=the treated plant population has 20% damage compared to the untreated control population (e.g. growth height, leaf damage, etc.) • 100%=treated plants completely damaged/killed.

[2] = test system: summer barley (HORVS; cv. Montoya); assay: Absolute action: reduction of damage by mesosulfuron-methyl on summer barley, greenhouse post-emergence; assay type: in vivo; details: for Absolute reduction in damage (difference): mesosulfuron-methyl 20 g/ha, damage without minus with safener; for Herbicide damage with compound of the formula (I) (%): then mesosulfuron-methyl 20 g/ha, visual 0-100% scale, 14-21 days after application
Procedure: as §1, with “2.2 Absolute Action” for “2.1 Absolute Action”, “on Summer Barley (HORVS) The seeds” for “on Summer Wheat (TRZAS) The seeds”, “treated are aid out in” for “treated are laid out in”, “soil and grown in a” for “soil and grow in a”, “leaf stage (BBCE10-BBCH12). In the” for “leaf stage (BBCH10—BBCH12). In the”, “control population (e.g.: growth height,” for “control population (e.g. growth height,”

Structure (SMILES)	Absolute reduction in herbicide damage (damage without safener minus damage with safener) ([1]; safener 125 g a.i./ha) [%]	Herbicide damage with compound of the formula (I) ([1]; safener 125 g a.i./ha) [%]	Absolute reduction in herbicide damage (damage without safener minus damage with safener) ([1]; safener 500 g a.i./ha) [%]	Herbicide damage with compound of the formula (I) ([1]; safener 500 g a.i./ha) [%]	Absolute reduction in damage (difference) ([2]; safener 125 g a.i./ha) [%]	Herbicide damage with compound of the formula (I) (%) ([2]; safener 125 g a.i./ha)	Absolute reduction in damage (difference) ([2]; safener 500 g a.i./ha) [%]	Herbicide damage with compound of the formula (I) (%) ([2]; safener 500 g a.i./ha)	Absolute reduction in herbicide damage (damage without safener minus damage with safener) ([1]; safener 250 g/ha) [%]	Herbicide damage with compound of the formula (I) ([1]; safener 250 g/ha) [%]	Absolute reduction in damage (difference) ([2]; safener 250 g a.i./ha) [%]	Herbicide damage with compound of the formula (I) (%) ([2]; safener 250 g a.i./ha)	Absolute reduction in herbicide damage (damage without safener minus damage with safener) ([1]; safener 1000 g/ha) [%]	Herbicide damage with compound of the formula (I) ([1]; safener 1000 g/ha) [%]	Absolute reduction in damage (difference) ([2]; safener 1000 g a.i./ha) [%]	Herbicide damage with compound of the formula (I) (%) ([2]; safener 1000 g a.i./ha)
COC(=O)COc1nc(-c2ccc(Cl)cc2Cl)n(-c2ccc(Cl)cc2F)n1 [I.43-49, Methyl {[1-(4-chloro-2-fluorophenyl)-5-(2,4-dichlorophenyl)-1H-1,2,4-triazol-3-yl]oxy}acetate]	36	27	40	23	30	33	33	30								
O=C(O)COc1nc(-c2cc(F)cc(F)c2)n(-c2ccc(F)cc2)n1 [I.54-4]									23	20	23	37				
COC(=O)COc1nc(-c2ccccc2F)n(-c2ccc(F)cc2F)n1 [I.4-38]	27	30					50	7								
O=C(O)COc1nc(-c2ccc(Cl)cc2F)n(-c2ccc(Cl)cc2Cl)n1 [I.48-32]	30	30	37	23	40	20	50	10								
CCOC(=O)COc1nc(-c2cc(F)cc(F)c2)n(-c2ccc(F)cc2)n1 [I.53-4]											27	33	20	23		
CCOC(=O)COc1nc(-c2ccc(Cl)cc2Cl)n(-c2ccc(F)cc2F)n1 [I.44-38]	53	10	60	3	43	17	50	10								
CCOC(=O)COc1nc(-c2ccc(Cl)cc2Cl)n(-c2ccc(Cl)cc2Cl)n1 [I.44-32]	53	10	56	7	33	27	47	13								
CCOC(=O)COc1nc(-c2ccc(Cl)cc2F)n(-c2ccc(F)cc2F)n1 [I.47-38]	27	13			40	17	47	10								
O=C(O)COc1nc(-c2ccccc2)n(-c2ccc(Cl)cc2)n1 [I.3-7]									23	20	20	40	33	10		
COC(=O)COc1nc(-c2ccccc2F)n(-c2ccc(Cl)cc2F)n1 [I.4-49]	40	17			44	13	47	10								
COC(=O)COc1nc(-c2ccccc2F)n(-c2ccc(Cl)cc2Cl)n1 [I.4-32]	34	23	47	10	20	37	44	13								
COC(=O)COc1nc(-c2ccc(Cl)cc2Cl)n(-c2ccc(Cl)cc2Cl)n1 [I.43-32]	33	30	43	20	26	37	33	30								
O=C(O)COc1nc(-c2ccccc2F)n(-c2ccc(F)cc2F)n1 [I.6-38]	50	17			53	20										
CCOC(=O)COc1nc(-c2ccc(Cl)cc2Cl)n(-c2ccc(Cl)cc2F)n1 [I.44-49]	43	10	46	7	30	30										
COC(=O)COc1nc(-c2ccc(Cl)cc2F)n(-c2ccccc2F)n1 [I.46-2]	46	7			23	37	33	27								
CCOC(=O)COc1nc(-c2ccccc2F)n(-c2ccc(Cl)cc2F)n1 [I.5-49]	54	13			50	23	56	17								
CCOC(=O)COc1nc(-c2cc(F)cc(F)c2)n(-c2ccc(F)cc2F)n1 [I.53-38]											30	30	20	23	40	20
